Reference: patent publication US12077503B2, “Substituted cyclic amides and their use as herbicides” (FMC CORPORATION, priority 2015, dated 2024)
Read-outs that look alike come from different tables or passages of the source.

Experiments:
Assay in all cases: Test A preemergence
Format in all cases: in vivo
[1] = system: ryegrass, Italian (Italian ryegrass, Lolium multiflorum); conditions: Lolium multiflorum, pre-emergence, 240 h; for pest or weed control at 125 g/ha: 125 g ai/ha; for pest or weed control at 500 g/ha: 500 g ai/ha
Procedure, shortened: (§1)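 Seeded soil received test chemicals as a preemergence directed spray, and seedlings at one to two leaves, 2–10 cm tall, received them postemergence, in a non-phytotoxic, surfactant-containing solvent mixture. Pots were held in a greenhouse for approximately 10 d, then rated for injury from 0, no effect, to 100, complete control.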

[2] = system: barnyardgrass (Echinochloa crus-galli); conditions: Echinochloa crus-galli, pre-emergence, 240 h; for pest or weed control at 125 g/ha: 125 g ai/ha; for pest or weed control at 500 g/ha: 500 g ai/ha
Procedure, shortened: as §1

[3] = system: giant foxtail (Setaria faberii); conditions: Setaria faberi, pre-emergence, 240 h; for pest or weed control at 125 g/ha: 125 g ai/ha; for pest or weed control at 500 g/ha: 500 g ai/ha
Procedure, shortened: as §1

[4] = system: ragweed (common ragweed, Ambrosia elatior); conditions: Ambrosia artemisiifolia, pre-emergence, 240 h; for pest or weed control at 125 g/ha: 125 g ai/ha; for pest or weed control at 500 g/ha: 500 g ai/ha
Procedure, shortened: as §1

[5] = system: pigweed (Amaranthus retroflexus); conditions: Amaranthus retroflexus, pre-emergence, 240 h; for pest or weed control at 125 g/ha: 125 g ai/ha; for pest or weed control at 500 g/ha: 500 g ai/ha
[6] = system: Kochia (Kochia scoparia); conditions: Bassia scoparia, pre-emergence, 240 h; for pest or weed control at 125 g/ha: 125 g ai/ha; for pest or weed control at 500 g/ha: 500 g ai/ha
Procedure, shortened: as §1

[7] = preemergence, visual injury rating, 0 to 100 scale where 0 is no effect and 100 is complete control, approximately 10 d, read-out: Ryegrass, Italian plant response rating
[8] = preemergence, 0 to 100 scale where 0 is no effect and 100 is complete control, read-out: Ryegrass, Italian plant response rating
[9] = preemergence, visual injury rating, 0 to 100 scale where 0 is no effect and 100 is complete control, approximately 10 d, read-out: Barnyardgrass plant response rating
[10] = preemergence, 0 to 100 scale where 0 is no effect and 100 is complete control, read-out: Barnyardgrass plant response rating
[11] = preemergence, visual injury rating, 0 to 100 scale where 0 is no effect and 100 is complete control, approximately 10 d, read-out: Foxtail, Giant plant response rating
[12] = preemergence, 0 to 100 scale where 0 is no effect and 100 is complete control, read-out: Foxtail, Giant plant response rating
[13] = preemergence, visual injury rating, 0 to 100 scale where 0 is no effect and 100 is complete control, approximately 10 d, read-out: Ragweed plant response rating
[14] = preemergence, 0 to 100 scale where 0 is no effect and 100 is complete control, read-out: Ragweed plant response rating
[15] = preemergence, visual injury rating, 0 to 100 scale where 0 is no effect and 100 is complete control, approximately 10 d, read-out: Pigweed plant response rating
[16] = preemergence, 0 to 100 scale where 0 is no effect and 100 is complete control, read-out: Pigweed plant response rating
[17] = preemergence, visual injury rating, 0 to 100 scale where 0 is no effect and 100 is complete control, approximately 10 d, read-out: Kochia plant response rating
[18] = preemergence, 0 to 100 scale where 0 is no effect and 100 is complete control, read-out: Kochia plant response rating
[19] = preemergence, visual rating after approx. 10 d, 0 to 100 scale where 0 is no effect and 100 is complete control, read-out: Plant response rating, Ryegrass, Italian
[20] = preemergence, 0 to 100 scale, 0 = no effect, 100 = complete control, read-out: Plant response rating, Ryegrass, Italian
[21] = preemergence, visual rating after approx. 10 d, 0 to 100 scale where 0 is no effect and 100 is complete control, read-out: Plant response rating, Barnyardgrass
[22] = preemergence, 0 to 100 scale, 0 = no effect, 100 = complete control, read-out: Plant response rating, Barnyardgrass
[23] = preemergence, visual rating after approx. 10 d, 0 to 100 scale where 0 is no effect and 100 is complete control, read-out: Plant response rating, Foxtail, Giant
[24] = preemergence, 0 to 100 scale, 0 = no effect, 100 = complete control, read-out: Plant response rating, Foxtail, Giant
[25] = preemergence, visual rating after approx. 10 d, 0 to 100 scale where 0 is no effect and 100 is complete control, read-out: Plant response rating, Ragweed
[26] = preemergence, 0 to 100 scale, 0 = no effect, 100 = complete control, read-out: Plant response rating, Ragweed
[27] = preemergence, visual rating after approx. 10 d, 0 to 100 scale where 0 is no effect and 100 is complete control, read-out: Plant response rating, Pigweed
[28] = preemergence, 0 to 100 scale, 0 = no effect, 100 = complete control, read-out: Plant response rating, Pigweed
[29] = preemergence, visual rating after approx. 10 d, 0 to 100 scale where 0 is no effect and 100 is complete control, read-out: Plant response rating, Kochia
[30] = preemergence, 0 to 100 scale, 0 = no effect, 100 = complete control, read-out: Plant response rating, Kochia

| Structure (SMILES) | pest or weed control at 125 g/ha [1, 7] [%] | pest or weed control at 500 g/ha [1, 8] [%] | pest or weed control at 125 g/ha [2, 9] [%] | pest or weed control at 500 g/ha [2, 10] [%] | pest or weed control at 125 g/ha [3, 11] [%] | pest or weed control at 500 g/ha [3, 12] [%] | pest or weed control at 125 g/ha [4, 13] [%] | pest or weed control at 500 g/ha [4, 14] [%] | pest or weed control at 125 g/ha [5, 15] [%] | pest or weed control at 500 g/ha [5, 16] [%] | pest or weed control at 125 g/ha [6, 17] [%] | pest or weed control at 500 g/ha [6, 18] [%] | also measured |
| --- | --- | --- | --- | --- | --- | --- | --- | --- | --- | --- | --- | --- | --- |
| CN1C[C@H](c2ccc3c(c2)OC(F)(F)O3)[C@@H](C(=O)Nc2ccc(F)c(F)c2F)C1=O [Compound 1204] | 70 | 90 | 90 | 90 | 90 | 90 | 90 | 90 | 70 | 100 | 80 | 80 |  |
| CC(C)c1cccc([C@H]2CN(C)C(=O)[C@@H]2C(=O)Nc2cccc(F)c2F)c1 [Compound 1388] |  |  |  |  |  |  |  |  |  |  |  |  | pest or weed control at 500 g/ha ([1]; preemergence, 0 to 100 scale (0 no effect, 100 complete control), read-out: Plant response rating, Ryegrass, Italian): 100%; pest or weed control at 125 g/ha ([1]; Preemergence, 0 to 100 scale (0 no effect, 100 complete control), read-out: Plant response rating, Ryegrass, Italian): 90%; pest or weed control at 500 g/ha ([2]; preemergence, 0 to 100 scale (0 no effect, 100 complete control), read-out: Plant response rating, Barnyardgrass): 100%; pest or weed control at 125 g/ha ([2]; Preemergence, 0 to 100 scale (0 no effect, 100 complete control), read-out: Plant response rating, Barnyardgrass): 100%; pest or weed control at 500 g/ha ([3]; preemergence, 0 to 100 scale (0 no effect, 100 complete control), read-out: Plant response rating, Foxtail, Giant): 100%; pest or weed control at 125 g/ha ([3]; Preemergence, 0 to 100 scale (0 no effect, 100 complete control), read-out: Plant response rating, Foxtail, Giant): 100%; pest or weed control at 500 g/ha ([4]; preemergence, 0 to 100 scale (0 no effect, 100 complete control), read-out: Plant response rating, Ragweed): 70%; pest or weed control at 125 g/ha ([4]; Preemergence, 0 to 100 scale (0 no effect, 100 complete control), read-out: Plant response rating, Ragweed): 0%; pest or weed control at 500 g/ha ([5]; preemergence, 0 to 100 scale (0 no effect, 100 complete control), read-out: Plant response rating, Pigweed): 70%; pest or weed control at 125 g/ha ([5]; Preemergence, 0 to 100 scale (0 no effect, 100 complete control), read-out: Plant response rating, Pigweed): 30%; pest or weed control at 500 g/ha ([6]; preemergence, 0 to 100 scale (0 no effect, 100 complete control), read-out: Plant response rating, Kochia): 90%; pest or weed control at 125 g/ha ([6]; Preemergence, 0 to 100 scale (0 no effect, 100 complete control), read-out: Plant response rating, Kochia): 80% |
| CN1C[C@H](c2ccc3c(c2)CCC3)[C@@H](C(=O)Nc2cccc(F)c2F)C1=O [Compound 743] |  |  |  |  |  |  |  |  |  |  |  |  | pest or weed control at 125 g/ha [1, 19]: 90%; pest or weed control at 500 g/ha [1, 20]: 90%; pest or weed control at 125 g/ha [2, 21]: 90%; pest or weed control at 500 g/ha [2, 22]: 90%; pest or weed control at 125 g/ha [3, 23]: 90%; pest or weed control at 500 g/ha [3, 24]: 90%; pest or weed control at 125 g/ha [4, 25]: 0%; pest or weed control at 500 g/ha [4, 26]: 40%; pest or weed control at 125 g/ha [5, 27]: 0%; pest or weed control at 500 g/ha [5, 28]: 20%; pest or weed control at 125 g/ha [6, 29]: 60%; pest or weed control at 500 g/ha [6, 30]: 80% |
| CN1C[C@H](c2ccc3c(c2)CCC3)[C@@H](C(=O)Nc2ccccc2F)C1=O [Compound 742] |  |  |  |  |  |  |  |  |  |  |  |  | pest or weed control at 125 g/ha [1, 19]: 50%; pest or weed control at 500 g/ha [1, 20]: 90%; pest or weed control at 125 g/ha [2, 21]: 90%; pest or weed control at 500 g/ha [2, 22]: 90%; pest or weed control at 125 g/ha [3, 23]: 90%; pest or weed control at 500 g/ha [3, 24]: 90%; pest or weed control at 125 g/ha [4, 25]: 20%; pest or weed control at 500 g/ha [4, 26]: 80%; pest or weed control at 125 g/ha [5, 27]: 20%; pest or weed control at 500 g/ha [5, 28]: 50%; pest or weed control at 125 g/ha [6, 29]: 60%; pest or weed control at 500 g/ha [6, 30]: 90% |
| COc1ccc([C@H]2CN(C)C(=O)[C@@H]2C(=O)Nc2ccccc2F)c(OC)c1 [Compound 1215] | 0 | 0 | 90 | 100 | 60 | 90 | 0 | 0 | 0 | 0 | 0 | 90 |  |
| O=C1NC[C@H](c2ccc(C(F)(F)F)cc2)C1C(=O)Nc1ccccc1CO (some centres unmarked) [Compound 1242] | 0 | 0 | 20 | 60 | 30 | 80 | 0 | 0 | 0 | 0 | 0 | 0 |  |
| CSc1ccccc1NC(=O)[C@H]1C(=O)N(C)C[C@@H]1c1cccc(C(F)(F)F)c1 [Compound 1249] | 30 | 100 | 100 | 100 | 100 | 100 | 30 | 70 | 80 | 90 |  | 90 |  |
| CSc1ccccc1NC(=O)[C@H]1C(=O)N(C)C[C@@H]1c1cccc(C)c1 [Compound 1232] | 20 | 60 | 90 | 90 | 90 | 90 | 60 | 80 | 70 | 90 | 70 | 80 |  |
